Assay results reported in US20120295349A1, “MAMMAL DEDICATED CELL LINE FROM HUMAN HEPATOCELLULAR CARCINOMA CELL” (Institute of Nuclear Energy Research Atomic Energy Council, …, priority 2009, published 2012).

Key:
Format in all cases: cell-based, human
[1] = test system: HepG2 cells; assay: 131I-FIAU uptake experiment in HepG2 cells; details: reacted 2 h
Protocol: (§1) This experiment is provided to analyze uptake of 131I-FIAU drug by HepG2 NF-κB/Luc/sr39tk transformed cells. HepG2 NF-κB/Luc/sr39tk transformed cells were cultured overnight in a 6-well plate at 1×10^6 cells/well to attach the cells onto the plate. Then, 1 ml/well of labeled ^131I-FIAU was added into the cells and reacted for 2 h, and then the cells was washed with ice-cold PBS to quench the drug reaction, and detected for radioactivity. FIG. 4 is uptake effect of ^131I-FIAU in HepG2 NF-κB/Luc/sr39tk cell, in which X axis represents different transformed cell line; and Y axis is uptake amount of ^131I-FIAU per 0.1 million cells.

[2] = test system: HepG2 NF-κB/Luc/sr39tk cells; assay: 131I-FIAU uptake experiment in co-transformed HepG2 NF-κB/Luc/sr39tk cells; details: reacted 2 h
Protocol: as §1

[3] = test system: HepG2 NF-κB/Luc cells; assay: 131I-FIAU uptake experiment in HepG2 NF-κB/Luc cells; details: reacted 2 h
Protocol: as §1

[4] = test system: HepG2 NF-κB/Luc/sr39tk cells; assay: Cytotoxic effect of GCV on HepG2 NF-κB/Luc/sr39tk cells (WST-1 cell survival); details: GCV 0.001-500 μM, 96 h
Protocol: HepG2 NF-κB/luc/sr39tk was cultured at 3000 cells/well in 96 well plate format to attach the cells onto the plate, then drug-treated for 48 h with different concentrations of GCV at 0.001, 0.01, 0.1, 1, 50, 100 and 500 μM respectively, and then treated with fresh culture media containing GCV drug, and after 96 h of experiment, the culture media containing GCV drug was removed, then chromogenic reaction was carried out with WST-1 at 37° C. for 2 h, and finally analyzed by enzyme-linked immunosorbent assay (ELISA) at wavelengths of 450 nm and 620 nm respectively and plotted to obtain cell survival rate for calculation of cytotoxic effect of drug.

SMILES | uptake efficiency for 131I-FIAU [1] | uptake amount of 131I-FIAU per 0.1 million cells ([2]; 1—17 cell line) [%] | uptake amount of 131I-FIAU per 0.1 million cells ([2]; 1—18 cell line) [%] | uptake amount of 131I-FIAU per 0.1 million cells ([2]; 1—34 cell line) [%] | uptake amount of 131I-FIAU per 0.1 million cells ([2]; 2—24 cell line) [%] | uptake amount of 131I-FIAU per 0.1 million cells ([2]; 2—27 cell line) [%] | uptake efficiency for 131I-FIAU [3] | cytotoxic effect (cell survival rate) compared with control group (HepG2) ([4]; 1—18 cell line) | cytotoxic effect (cell survival rate) compared with control group (HepG2) ([4]; 2—24 cell line)
O=c1[nH]c(=O)n([C@@H]2O[C@H](CO)[C@@H](O)[C@@H]2F)cc1[131I] [131I-FIAU] | very low uptake efficiency | 20.1±0.41 | 41.5±1.00 | 27.2±1.07 | 22.9±0.68 | 12.9±0.45 | very low uptake efficiency | – | –
Nc1nc(O)c2ncn(COC(CO)CO)c2n1 [GCV, ganciclovir] | – | – | – | – | – | – | – | obvious cytotoxic effect | obvious cytotoxic effect
